Experimental data from patent US9464064B2, “HCV helicase inhibitors and methods of use thereof” (University of Kansas, priority 2011, dated 2016).

Key:
[1] = tested on: HCV replicon RNA; test: HCV RNA RT-qPCR assay in replicon cells; assay type: cell-based, hepatitis C virus; settings: qRT-PCR, 10 days of treatment
Description: For the HCV RNA reverse transciptase quantitative PCR (RT-qPCR) assay, cells were treated, washed 2 times with PBS, harvested, and collected by centrifugation (1000 g) for 5 minutes at 4° C. Total RNA was then extracted using the TRIZOL kit (Invitrogen) and suspended in 30 μL of nuclease-free water. RNA concentration was determined from A260. RT-qPCR was performed using TAQMAN probes, 1 μg total RNA and the QSCRIPT One-step Fast qRT-PCR kit (Quanta Biosciences, Gaithersburg, Md.). Reverse transcription was carried out at 50° C. for 20 minutes followed by one cycle at 95° C. for 5 minutes and 40 cycles at 95° C. for 15 seconds and 60° C. for 1 minute. […] The amount of HCV RNA in each sample was determined by first calculating the ΔCT of each sample, which was obtained by subtracting the threshold cycle (CT) obtained with the rRNA primers obtained from that of the CT with the HCV primers. ΔΔCT values were obtained by subtracting ΔCT values obtained in the presence of compound from ΔCT obtained with cells treated with DMSO only. The relative changes in HCV RNA levels were then calculated by assuming that each CT difference reflected a two-fold difference in RNA level (i.e., Expression=2^−ΔΔCT).

[2] = Plasma stability, mouse; assay type: in vitro ADME; settings: percent remaining at 3 hours
Description: Stability of compounds in human plasma (BioChemed Services) and mouse plasma (BioChemed Services) were determined. All liquid was dispensed and transfer steps were performed with the FREEDOM EVO automated liquid handler (Tecan US). Plasma was allowed to thaw at room temperature prior to preparing the assay solution of plasma:1×PBS (1:1). The assay solution was warmed up at 37° C. prior of adding the compound. Immediately after compounds were added, time 0 minute aliquots were promptly collected and mixed with cold acetonitrile (spiked with an internal standard). The remainder of the reaction volume was incubated at 37° C. with shaking. Additional aliquots were collected 180 minutes after the start of the reaction and promptly quenched with cold acetonitrile (spiked with an internal standard). Samples were centrifuged at 3000 rpm for 10 minutes. The amount of compound in the supernatant was determined by LC/MS/MS (Applied Biosystems, Sciex API4000 Q-TRAP) and the percent of parent compound remaining after 180 minutes was calculated by the following formula: % parent compound remaining=[(concentration at 180 minutes/concentration at 0 minutes)×100]. Results reported are the mean of each reaction duplicate, normalized to the internal standard, and expressed as a percent of compound remaining after the incubation time. […]

[3] = Chemical stability (hydrolytic); assay type: physicochemical; settings: PBS with 50% acetonitrile, pH 7.4; % remaining after 48 hours at room temperature
Description: The stability of compounds in 1×PBS, pH 7.4, and at room temperature, was determined. Stability was also assessed in the presence of 50% ACN. Compounds were diluted and time 0 hour aliquots were collected and transferred to acetonitrile (spiked with an internal standard). The remainder of the volume was incubated for 48 hours, with additional aliquots collected at different time points (6 total). The amount of compound was determined by LC/MS/MS. The parent compound remaining was calculated by the following formula: % parent compound remaining=[(concentration at x hour/concentration at 0 hour)×100]. Results are the mean of each reaction triplicate, normalized to the internal standard, and expressed as a percent compound remaining after 48 hours.

[4] = Parallel Artificial Membrane Permeability Assay (PAMPA); assay type: in vitro ADME; settings: acceptor pH 7.4
Description: Permeability was assessed using the Parallel Artificial Membrane Permeability Assay (PAMPA) in a 96-well format. All liquid dispensed and transfer steps were performed with the FREEDOM EVO automated liquid handler (Tecan US). Measurements were performed in an aqueous buffer solution (PRISMA HT, pION Inc.) at pH 5.0, 6.2, and 7.4, in duplicate. A “sandwich” plate (pION Inc.) composed of a donor bottom plate and an acceptor filter plate was used. The donor wells contained the compounds in 180 μl system solution, and magnetic stir bars. The filter on the bottom of each acceptor well was coated with GIT-0 lipid (pION Inc.) and filled with 200 μl of Acceptor Sink Buffer, pH 7.4 (pION Inc.) containing a surfactant to mimic the function of serum proteins. The permeation time was 30 minutes and moderate stirring (equivalent to 40 μm Aqueous Boundary Layer thickness) was applied using the GUT-BOX (pION, Inc.). After the permeation time, the sandwich was disassembled and the amount of compound present in both the donor and acceptor wells was measured by UV absorbance (250-498 nm) using the Infinite M200 (Tecan US) and compared to spectra obtained from reference standards. Mass balance was used to determine the amount of material embedded in the membrane filter. The effective permeability, Pe, was calculated using the software PAMPA Evolution Plus, version 3.2 (pION Inc). Verapamil HCl (considered highly permeable), Metoprolol (considered moderately permeable), and Ranitidine (considered poorly permeable) were used as reference standards. Permeation time was 30 minutes. Final DMSO concentration was 0.5% and standards and test compounds were assayed at 100 μM.

SMILES | decrease of HCV replicon RNA content [1] | Plasma Stability Mouse [2] [%] | Aqueous Stability [3] [%] | Papp at 30 min, 100 μM ([4]; PAMPA, donor pH 6.2, read-out: PAMPA Pe) [×10⁻⁶ cm/s] | PAMPA Pe ([4]; donor pH 5.0) | PAMPA Pe ([4]; donor pH 7.4)
Cc1ccc2nc(-c3ccc4nc(-c5ccc(NC(=O)c6cc(C(F)(F)F)cc(C(F)(F)F)c6)cc5)sc4c3)sc2c1S(=O)(=O)O [Compound 24, 2′-(4-(3,5-bis(trifluoromethyl)benzamido)phenyl)-6-methyl-[2,6′-bibenzo[d]thiazole]-7-sulfonic acid] | about 13 fold |  |  |  |  | 
Cc1ccc2nc(-c3ccc4nc(-c5ccc(NC(=O)c6cccc(Cl)c6)cc5)sc4c3)sc2c1S(=O)(=O)O [Compound 17, 2′-(4-(3-chlorobenzamido)phenyl)-6-methyl-[2,6′-bibenzo[d]thiazole]-7-sulfonic acid] |  | 95.0 | 100 | 0.22 | 0 (5.0) ×10^−6 cm/s | 0 (7.4) ×10^−6 cm/s
